Our source for the IC50 values is BindingDB's records for doi:10.7270/Q2222S6W (University of Pittsburgh, 2007).

Structures can show the parent of a compound that is named as a salt.

As a reminder, the IC50 is the concentration at which inhibition is half-maximal. Higher therefore signals weaker potency in that assay.

Genome polyprotein, sequence (P06935 1371-1501 limits assumed): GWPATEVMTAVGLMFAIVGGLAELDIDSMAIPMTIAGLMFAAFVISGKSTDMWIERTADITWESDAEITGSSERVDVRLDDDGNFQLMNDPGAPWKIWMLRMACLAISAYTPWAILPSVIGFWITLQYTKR
Genome polyprotein, sequence (P06935 1502-2120 limits assumed): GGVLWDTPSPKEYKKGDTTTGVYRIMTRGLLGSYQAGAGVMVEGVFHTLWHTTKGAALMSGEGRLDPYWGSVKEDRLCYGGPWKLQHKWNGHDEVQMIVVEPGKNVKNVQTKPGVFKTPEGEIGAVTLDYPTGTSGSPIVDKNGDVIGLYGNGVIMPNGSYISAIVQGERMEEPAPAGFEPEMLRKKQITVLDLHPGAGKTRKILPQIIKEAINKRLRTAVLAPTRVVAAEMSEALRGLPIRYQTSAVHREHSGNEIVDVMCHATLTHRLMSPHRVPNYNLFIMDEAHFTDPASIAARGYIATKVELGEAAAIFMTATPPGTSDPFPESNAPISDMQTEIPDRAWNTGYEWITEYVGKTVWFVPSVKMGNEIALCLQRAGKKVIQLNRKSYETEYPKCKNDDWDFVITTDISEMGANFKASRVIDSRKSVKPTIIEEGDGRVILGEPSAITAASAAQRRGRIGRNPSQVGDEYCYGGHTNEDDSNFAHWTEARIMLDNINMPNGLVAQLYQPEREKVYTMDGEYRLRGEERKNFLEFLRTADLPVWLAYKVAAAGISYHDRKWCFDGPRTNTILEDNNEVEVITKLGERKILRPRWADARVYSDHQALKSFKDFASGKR

This assay addresses Genome polyprotein (West Nile virus, UniProt P06935). Briefly: inhibitors of WNV NS2B-NS3 protease, dose response, biochemical, confirmation (AID 653).
For the compound `OC[C@H]1O[C@@H](n2cnc3c(NC4CCCC4)ncnc32)[C@H](O)[C@@H]1O`, the IC50 was > 50 µM.

Regarding `COc1ccc(C2=Nn3c(nnc3-c3ccc(OC)cc3)SC2)cc1`, the IC50 is > 50 µM.

On to `Cc1ccc(S(=O)(=O)n2nc(OC(=O)c3cccs3)cc2N)cc1`, for which 2.41 µM corresponded to half-maximal inhibition (IC50).

As for `Nc1cc(OC(=O)c2ccco2)nn1S(=O)(=O)c1ccc(F)cc1`, the 50% inhibitory concentration (IC50) was determined as 1.65 µM.

With `N[C@@H](Cc1ccc(O)c(I)c1)C(=O)O`, the half-maximal inhibitory concentration (IC50) was > 50 µM.

In the case of `CCCC(=O)Nc1ccc(NC(=O)C23CC4CC(CC(C4)C2)C3)cn1`, the IC50 was > 50 µM.

For the compound `COc1ccccc1-n1c(SCC(=O)N2CCOCC2)nc(O)c(Cc2ccccc2)c1=O`, the IC50 was > 50 µM.

Turning to `CCOC(=O)C1=C[C@]2(CC)CCCN3CCc4c(n1c1ccccc41)[C@@H]32`, the IC50 was > 50 µM.

As for `O=C(O)c1cc(-c2ccc(F)cc2F)ccc1O`, the 50% inhibitory concentration (IC50) is > 50 µM.

`CN1C(=O)N(CN2CCCCC2)C2C1N(C)C(=O)N2CN1CCCCC1` (configuration not stated) [1,6-dimethyl-3,4-bis(1-piperidinylmethyl)-3a,6a-dihydroimidazo[4,5-d]imidazole-2,5-dione]: the IC50 was > 50 µM.

`Cc1ccc(NC(=O)C2CCN(S(=O)(=O)c3cccc4nonc34)CC2)nc1` [1-(2,1,3-benzoxadiazol-4-ylsulfonyl)-N-(5-methyl-2-pyridinyl)-4-piperidinecarboxamide]: the IC50 is > 50 µM.

As to `O=C(c1cccs1)N1CCN(C(=O)c2ccco2)c2ccccc2C1` [1-(2-furoyl)-4-(thien-2-ylcarbonyl)-2,3,4,5-tetrahydro-1H-1,4-benzodiazepine], the IC50 is > 50 µM.

As for `CCOC(=O)C1CCN(S(=O)(=O)c2ccc(C(=O)OC)cc2)CC1` [1-(4-Methoxycarbonyl-benzenesulfonyl)-piperidine-4-carboxylic acid ethyl ester], the IC50 was > 50 µM.

Regarding `CCSc1nnc(NC(=O)NCC(F)(F)F)s1` [1-(5-ethylsulfanyl-1,3,4-thiadiazol-2-yl)-3-(2,2,2-trifluoroethyl)urea], the IC50 is > 50 µM.

Consider `Cc1cc(N2CCC(C(=O)NC3CCCCC3)CC2)nc(-c2ccccc2)n1` [1-(6-Methyl-2-phenyl-pyrimidin-4-yl)-piperidine-4-carboxylic acid cyclohexylamide], for which the IC50 was > 50 µM.

`CCCCNC(=O)NS(=O)(=O)c1ccc(C)cc1` [1-Butyl-3-(p-methylphenylsulfonyl)urea]: the 50% inhibitory concentration (IC50) is > 50 µM.

For `CC(C)c1nnc(NC(=O)c2c(O)n3c4c(cccc4c2=O)CCC3)s1` [1-Hydroxy-3-oxo-6,7-dihydro-3H,5H-pyrido[3,2,1-ij]quinoline-2-carboxylic acid (5-isopropyl-[1,3,4]thiadiazol-2-yl)-amide], the IC50 is > 50 µM.

Regarding `COc1cccc(CNC(=O)C2CCN(S(=O)(=O)c3ccc4c(c3)CCC(=O)N4)CC2)c1` [1-[(2-keto-3,4-dihydro-1H-quinolin-6-yl)sulfonyl]-N-m-anisyl-isonipecotamide], the half-maximal inhibitory concentration (IC50) is > 50 µM.

For the compound `CC(CC1(O)C(=O)N(Cc2ccccc2)c2ccccc21)N=O` (configuration not stated) [1-benzyl-3-(2-hydroximinopropyl)-3-hydroxy-oxindole], the IC50 was > 50 µM.

On to `CC(C)n1c(-c2cccnc2)nc2cnccc21` [1-isopropyl-2-(3-pyridyl)imidazo[4,5-c]pyridine], for which the IC50 is > 50 µM.

For `Cn1cc(C(=O)NCN2CCCCC2)c2ccccc21` [1-methyl-N-(1-piperidinylmethyl)-3-indolecarboxamide;hydrochloride], the IC50 is > 50 µM.

As to `OC(CNCCCN1CCCCC1)COc1ccccc1` (configuration not stated) [1-phenoxy-3-(3-piperidin-1-ylpropylamino)propan-2-ol;hydrochloride], the IC50 is > 50 µM.

For `CC1=C(C#N)C(=O)OC(C)(C)C1` [2,2,4-trimethyl-6-oxidanylidene-3H-pyran-5-carbonitrile], the IC50 is > 50 µM.

For the compound `Cc1cnc(NC(=O)C(C)N2C(=O)C3CC=CCC3C2=O)s1` (configuration not stated) [2-(1,3-diketo-3a,4,7,7a-tetrahydroisoindol-2-yl)-N-(5-methylthiazol-2-yl)propionamide], the IC50 was > 50 µM.

For the compound `O=C(OCCN1C(=O)c2ccccc2C1=O)c1cc(S(=O)(=O)N2CCOCC2)ccc1F` [2-(1,3-dioxoisoindol-2-yl)ethyl 2-fluoro-5-morpholin-4-ylsulfonylbenzoate], the concentration for half-maximal inhibition (IC50) was > 50 µM.

On to `COc1ccc(OC)c(C2C(C(N)=O)C(C)=Nc3nc(-c4cccc(Cl)c4)nn32)c1` (configuration not stated) [2-(3-chlorophenyl)-7-(2,5-dimethoxyphenyl)-5-methyl-1,7-dihydro-[1,2,4]triazolo[1,5-a]pyrimidine-6-carboxamide], for which the IC50 is > 50 µM.

As to `CCc1cccc2c(C#N)cn(CC(=O)NCc3ccco3)c12` [2-(3-cyano-7-ethyl-1-indolyl)-N-(2-furanylmethyl)acetamide], the IC50 was > 50 µM.

In the case of `Cc1cccn2c(=O)c(/C=N/Cc3ccco3)c(Nc3ccc(Cl)cc3)nc12` [2-(4-chloroanilino)-3-(2-furanylmethyliminomethyl)-9-methyl-4-pyrido[1,2-a]pyrimidinone], the IC50 is > 50 µM.

For `CCC(=O)N1CCc2cc(Br)cc(S(=O)(=O)CC(=O)OC)c21` [2-(5-bromo-1-propionyl-indolin-7-yl)sulfonylacetic acid methyl ester], the IC50 was > 50 µM.

As for `COC(=O)c1c(NC(=O)C2CC2)sc2c1CCCC2` [2-(cyclopropanecarbonylamino)-4,5,6,7-tetrahydrobenzothiophene-3-carboxylic acid methyl ester], the IC50 is > 50 µM.

`COc1cccc(NC(=O)CSc2nc3nnc(C)c-3c(N)n2-c2cccc(OC)c2)c1` [2-[4-amino-5-(3-methoxyphenyl)-3-methylpyrazolo[3,4-d]pyrimidin-6-yl]sulfanyl-N-(3-methoxyphenyl)acetamide]: the IC50 was > 50 µM.

Take `C=CCn1c(SCC(=O)OC)nc2sc3c(c2c1=O)CCN(C)C3` [2-[(3-allyl-4-keto-7-methyl-6,8-dihydro-5H-pyrido[2,3]thieno[2,4-b]pyrimidin-2-yl)thio]acetic acid methyl ester]: the IC50 was > 50 µM.

Turning to `CCOC(=O)CNC(=O)C(Cc1ccccc1)NS(=O)(=O)c1cccs1` (configuration not stated) [2-[[1-oxo-3-phenyl-2-(thiophen-2-ylsulfonylamino)propyl]amino]acetic acid ethyl ester], the IC50 was > 50 µM.

As to `COc1ccc(NC=C2C(=O)CCCC2=O)cc1` [2-[[(4-methoxyphenyl)amino]methylidene]cyclohexane-1,3-dione], the IC50 came out at 34.1 µM.

With `CCc1nc(N)c(C#N)c(-c2cccn2C)c1C` [2-amino-6-ethyl-5-methyl-4-(1-methylpyrrol-2-yl)pyridine-3-carbonitrile], the IC50 is > 50 µM.

As to `CC(C[N+](C)(C)C)OC(N)=O` (configuration not stated) [2-aminocarbonyloxypropyl(trimethyl)azanium;chloride], the IC50 is > 50 µM.

In the case of `Nc1cc(OC(=O)c2ccccc2Br)nn1S(=O)(=O)c1ccccc1` [2-bromobenzoic acid (5-amino-1-besyl-pyrazol-3-yl) ester], the IC50 was 1.26 µM.

In the case of `COc1ccc(S(=O)(=O)n2nc(OC(=O)c3ccccc3Br)cc2N)cc1` [2-bromobenzoic acid [5-amino-1-(4-methoxyphenyl)sulfonyl-3-pyrazolyl] ester], the IC50 is 0.297 µM.

Consider `COc1ccc(S(=O)(=O)n2nc(OC(=O)c3cccs3)cc2N)cc1` [2-thiophenecarboxylic acid [5-amino-1-(4-methoxyphenyl)sulfonyl-3-pyrazolyl] ester], for which it took 0.11 µM to reach half-maximal inhibition (IC50).

On to `CCOC(=O)c1[nH]c2ccccc2c1NC(=O)CC` [3-(1-oxopropylamino)-1H-indole-2-carboxylic acid ethyl ester], for which the half-maximal inhibitory concentration (IC50) was > 50 µM.

Regarding `Brc1cccc(-c2cnc3n2CCCCC3)c1` [3-(3-bromophenyl)-6,7,8,9-tetrahydro-5H-imidaz[1,2-a]azepine;hydrochloride], the IC50 is > 50 µM.

As to `O=S(=O)(c1ccc(Cl)cc1)N1CN2CCN(C2)C1` [3-(4-Chloro-benzenesulfonyl)-1,3,5-triaza-bicyclo[3.2.1]octane], the IC50 is > 50 µM.

Regarding `CC(=O)N1CCN(C(=O)c2cccc(S(=O)(=O)Nc3ccc(C)cc3)c2)CC1` [3-(4-acetylpiperazine-1-carbonyl)-N-(4-methylphenyl)benzenesulfonamide], the IC50 is > 50 µM.

On to `COc1ccc2[nH]c(C(=O)O)c(CCNC(C)=O)c2c1` [3-[2-(acetylamino)ethyl]-5-methoxy-1H-indole-2-carboxylic acid], for which the IC50 was > 50 µM.

In the case of `COc1cccc2cc(-c3csc(CCn4nc(C)cc4C)n3)c(=O)oc12` [3-[2-[2-(3,5-dimethyl-1-pyrazolyl)ethyl]-4-thiazolyl]-8-methoxy-1-benzopyran-2-one], the IC50 was > 50 µM.

For `O=C(c1cc2ccccc2oc1=O)N1CCN(c2ccc(N3CCOCC3)nn2)CC1` [3-[4-(6-morpholin-4-ylpyridazin-3-yl)piperazin-1-yl]carbonylchromen-2-one], the IC50 was > 50 µM.

Turning to `CCn1cc(C(=O)Nc2cccc(C(=O)OC)c2)c(=O)c2ccc(C)nc21` [3-[(1-Ethyl-7-methyl-4-oxo-1,4-dihydro-[1,8]naphthyridine-3-carbonyl)-amino]-benzoic acid methyl ester], the IC50 is > 50 µM.

`CC(C)NCc1c(O)c(Br)cc2oc3c(c12)CCCC3` [3-bromanyl-1-[(propan-2-ylamino)methyl]-6,7,8,9-tetrahydrodibenzofuran-2-ol]: the IC50 is > 50 µM.

Regarding `CCOC(=O)N1CCN(C2=CC(=O)OC23CCCCC3)CC1` [4-(2-Oxo-1-oxa-spiro[4.5]dec-3-en-4-yl)-piperazine-1-carboxylic acid ethyl ester], the IC50 was > 50 µM.

For `COc1ccc(N2CCN(C(=O)c3cn(C)c(=O)c4c3c3ccccc3n4C)CC2)cc1` [4-[4-(4-methoxyphenyl)piperazin-1-yl]carbonyl-2,9-dimethyl-pyrido[3,4-b]indol-1-one], the IC50 was > 50 µM.

As to `NC(=O)c1ccc(-n2nnnc2SCc2ccc(F)cc2)cc1` [4-[5-[(4-fluorobenzyl)thio]tetrazol-1-yl]benzamide], the IC50 was > 50 µM.

Take `CCN(CC)CCNC(=O)c1ccc(N)cc1` [4-amino-N-[2-(diethylamino)ethyl]benzamide;hydrochloride]: the IC50 was > 50 µM.
